According to PMC3969223, “Characterization of WZ4003 and HTH-01-015 as selective inhibitors of the LKB1-tumour-suppressor-activated NUAK kinases” (Biochemical Journal, 2013):

Legend:
Assay in all cases: Kinase profiling
Assay type in all cases: biochemical
Details in all cases: 0.1 or 1 μM inhibitor; mean of triplicate
MEKK1 = MEKK1 (Homo sapiens, UniProt Q13233)
Method: (§1) Kinase inhibitor specificity profiling assays were carried out at The International Centre for Protein Kinase Profiling (http://www.kinase-screen.mrc.ac.uk/) against a panel of 140 protein kinases as described previously. Results are presented as a percentage of kinase activity in DMSO control reactions. Protein kinases were assayed in vitro with 0.1 or 1 μM of the inhibitors and the results are presented as an average of triplicate reactions±S.D. or in the form of comparative histograms.

TGFBR1 = TGFBR1 (Homo sapiens, UniProt P36897)
Chain of TGFBR1 (P36897 34-503): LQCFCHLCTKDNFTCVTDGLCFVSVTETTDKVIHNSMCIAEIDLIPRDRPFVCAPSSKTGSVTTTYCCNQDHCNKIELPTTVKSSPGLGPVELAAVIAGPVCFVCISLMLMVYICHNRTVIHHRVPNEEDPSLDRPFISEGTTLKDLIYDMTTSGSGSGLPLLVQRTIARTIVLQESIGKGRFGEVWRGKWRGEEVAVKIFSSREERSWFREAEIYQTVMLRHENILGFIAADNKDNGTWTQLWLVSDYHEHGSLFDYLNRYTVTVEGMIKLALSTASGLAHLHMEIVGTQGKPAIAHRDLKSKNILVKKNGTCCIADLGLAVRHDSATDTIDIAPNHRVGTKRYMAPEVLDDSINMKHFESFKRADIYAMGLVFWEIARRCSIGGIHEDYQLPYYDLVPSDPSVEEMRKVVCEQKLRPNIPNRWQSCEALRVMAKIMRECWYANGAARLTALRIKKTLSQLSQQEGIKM
Method: as §1

MST4 = MST4 (Homo sapiens, UniProt Q9P289)
Method: as §1

EPH-B2 = EPH-B2 (Homo sapiens, UniProt P29323)
Method: as §1

PHK = PHK (Homo sapiens, UniProt Q16816)
Method: as §1

EIF2AK3 = EIF2AK3 (Homo sapiens, UniProt Q9NZJ5)
Method: as §1

NEK2α = NEK2α (Homo sapiens, UniProt P51955)
Chain of NEK2α (P51955 whole entry): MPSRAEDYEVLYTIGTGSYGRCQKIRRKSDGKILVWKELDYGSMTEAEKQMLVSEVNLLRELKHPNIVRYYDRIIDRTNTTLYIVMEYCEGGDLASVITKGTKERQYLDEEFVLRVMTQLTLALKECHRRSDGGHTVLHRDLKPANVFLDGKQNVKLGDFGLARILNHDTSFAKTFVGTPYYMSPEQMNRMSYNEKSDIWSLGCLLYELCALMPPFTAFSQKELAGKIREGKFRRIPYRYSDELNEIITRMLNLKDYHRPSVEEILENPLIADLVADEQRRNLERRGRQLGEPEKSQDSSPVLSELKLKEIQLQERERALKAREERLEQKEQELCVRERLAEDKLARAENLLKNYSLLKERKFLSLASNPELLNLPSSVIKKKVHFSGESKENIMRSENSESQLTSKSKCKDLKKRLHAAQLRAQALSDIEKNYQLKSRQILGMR
Method: as §1

TTBK1 = TTBK1 (Homo sapiens, UniProt Q5TCY1)
Chain of TTBK1 (Q5TCY1 whole entry): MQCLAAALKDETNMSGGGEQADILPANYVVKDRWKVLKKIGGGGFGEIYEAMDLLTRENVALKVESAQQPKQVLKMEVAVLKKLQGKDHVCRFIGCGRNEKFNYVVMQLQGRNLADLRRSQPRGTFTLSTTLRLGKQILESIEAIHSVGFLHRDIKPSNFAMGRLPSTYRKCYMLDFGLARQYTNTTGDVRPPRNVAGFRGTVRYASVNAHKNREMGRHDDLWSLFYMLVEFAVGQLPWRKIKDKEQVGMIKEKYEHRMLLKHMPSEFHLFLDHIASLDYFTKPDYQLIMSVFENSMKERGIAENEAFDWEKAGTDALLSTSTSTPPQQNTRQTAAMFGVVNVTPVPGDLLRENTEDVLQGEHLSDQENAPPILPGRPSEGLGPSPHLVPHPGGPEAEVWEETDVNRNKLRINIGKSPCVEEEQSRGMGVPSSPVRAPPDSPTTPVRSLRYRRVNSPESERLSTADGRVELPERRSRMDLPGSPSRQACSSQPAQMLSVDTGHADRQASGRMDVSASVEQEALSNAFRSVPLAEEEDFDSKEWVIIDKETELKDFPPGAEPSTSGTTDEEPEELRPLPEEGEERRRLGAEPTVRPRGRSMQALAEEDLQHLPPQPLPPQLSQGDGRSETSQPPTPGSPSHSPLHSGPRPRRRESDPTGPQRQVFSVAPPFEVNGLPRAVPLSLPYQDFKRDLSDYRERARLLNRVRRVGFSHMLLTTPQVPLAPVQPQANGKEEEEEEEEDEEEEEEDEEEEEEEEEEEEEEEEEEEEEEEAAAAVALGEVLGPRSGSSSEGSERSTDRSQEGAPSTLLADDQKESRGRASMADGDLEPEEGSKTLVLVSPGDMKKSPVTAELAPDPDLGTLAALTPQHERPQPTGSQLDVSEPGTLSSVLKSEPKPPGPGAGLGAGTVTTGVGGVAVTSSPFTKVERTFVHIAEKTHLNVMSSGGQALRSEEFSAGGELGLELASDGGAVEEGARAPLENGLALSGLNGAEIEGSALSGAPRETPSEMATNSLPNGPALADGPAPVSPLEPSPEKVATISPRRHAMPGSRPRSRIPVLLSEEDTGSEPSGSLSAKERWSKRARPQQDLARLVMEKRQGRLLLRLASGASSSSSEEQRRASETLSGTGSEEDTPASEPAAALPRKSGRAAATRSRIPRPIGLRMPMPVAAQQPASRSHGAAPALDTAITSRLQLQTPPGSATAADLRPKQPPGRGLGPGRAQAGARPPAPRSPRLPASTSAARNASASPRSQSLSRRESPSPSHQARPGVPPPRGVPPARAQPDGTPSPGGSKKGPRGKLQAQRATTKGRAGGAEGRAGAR
Method: as §1

VEG-FR = VEG-FR (Homo sapiens, UniProt P17948)
Method: as §1

TLK1 = TLK1 (Homo sapiens, UniProt Q9UKI8)
Method: as §1

PKCγ = PKCγ (Homo sapiens, UniProt P05129)
Method: as §1

ERK2 = ERK2 (Homo sapiens, UniProt P28482)
Method: as §1

MPSK1 = MPSK1 (Homo sapiens, UniProt O75716)
Method: as §1

CK1γ 2 = CK1γ 2 (Homo sapiens, UniProt P78368)
Method: as §1

PIM2 = PIM2 (Homo sapiens, UniProt Q9P1W9)
Chain of PIM2 (Q9P1W9 whole entry): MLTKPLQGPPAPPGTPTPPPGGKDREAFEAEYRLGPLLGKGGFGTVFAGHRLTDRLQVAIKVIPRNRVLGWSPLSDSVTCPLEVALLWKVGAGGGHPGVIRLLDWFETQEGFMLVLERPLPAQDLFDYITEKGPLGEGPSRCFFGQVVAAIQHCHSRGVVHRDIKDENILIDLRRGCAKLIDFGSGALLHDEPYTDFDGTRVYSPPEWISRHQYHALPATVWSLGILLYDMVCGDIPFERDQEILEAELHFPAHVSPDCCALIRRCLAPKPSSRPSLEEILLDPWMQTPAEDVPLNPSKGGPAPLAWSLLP
Method: as §1

ULK1 = ULK1 (Homo sapiens, UniProt O75385)
Method: as §1

MKK6 = MKK6 (Homo sapiens, UniProt P52564)
Chain of MKK6 (P52564 whole entry): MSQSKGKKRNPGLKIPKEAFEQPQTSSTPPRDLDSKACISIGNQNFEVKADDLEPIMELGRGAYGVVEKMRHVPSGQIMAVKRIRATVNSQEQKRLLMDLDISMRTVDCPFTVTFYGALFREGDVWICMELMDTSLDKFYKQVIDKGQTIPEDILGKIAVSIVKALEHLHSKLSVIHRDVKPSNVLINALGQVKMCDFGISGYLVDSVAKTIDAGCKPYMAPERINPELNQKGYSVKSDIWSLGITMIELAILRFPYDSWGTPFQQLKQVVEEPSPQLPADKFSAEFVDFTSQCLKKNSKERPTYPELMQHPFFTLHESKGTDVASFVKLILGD
Method: as §1

CAMKKβ = CAMKKβ (Homo sapiens, UniProt Q96RR4)
Method: as §1

MAP4K5 = MAP4K5 (Homo sapiens, UniProt Q9Y4K4)
Method: as §1

CSK = CSK (Homo sapiens, UniProt P41240)
Chain of CSK (P41240 whole entry): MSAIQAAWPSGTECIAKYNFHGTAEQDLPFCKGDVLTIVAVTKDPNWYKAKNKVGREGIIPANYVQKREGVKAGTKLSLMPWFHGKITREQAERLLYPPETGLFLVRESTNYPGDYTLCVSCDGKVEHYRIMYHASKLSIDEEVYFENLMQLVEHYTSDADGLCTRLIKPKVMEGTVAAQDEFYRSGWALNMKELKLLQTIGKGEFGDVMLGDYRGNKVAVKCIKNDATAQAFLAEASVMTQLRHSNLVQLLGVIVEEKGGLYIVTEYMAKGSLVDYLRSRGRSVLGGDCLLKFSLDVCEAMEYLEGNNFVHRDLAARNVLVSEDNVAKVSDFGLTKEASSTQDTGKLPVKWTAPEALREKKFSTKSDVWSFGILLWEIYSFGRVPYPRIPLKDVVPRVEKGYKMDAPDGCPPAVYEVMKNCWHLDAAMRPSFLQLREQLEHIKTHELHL
Method: as §1

RIPK2 = RIPK2 (Homo sapiens, UniProt O43353)
Method: as §1

SIK3 = SIK3 (Homo sapiens, UniProt Q9Y2K2)
Method: as §1

MKK2 = MKK2 (Homo sapiens, UniProt P36507)
Method: as §1

p38β MAPK = p38β MAPK (Homo sapiens, UniProt Q15759)
Method: as §1

MNK1 = MNK1 (Homo sapiens, UniProt Q9BUB5)
Method: as §1

PAK6 = PAK6 (Homo sapiens, UniProt Q9NQU5)
Method: as §1

SIK2 = SIK2 (Homo sapiens, UniProt Q9H0K1)
Method: as §1

CHK2 = CHK2 (Homo sapiens, UniProt O96017)
Chain of CHK2 (O96017 whole entry): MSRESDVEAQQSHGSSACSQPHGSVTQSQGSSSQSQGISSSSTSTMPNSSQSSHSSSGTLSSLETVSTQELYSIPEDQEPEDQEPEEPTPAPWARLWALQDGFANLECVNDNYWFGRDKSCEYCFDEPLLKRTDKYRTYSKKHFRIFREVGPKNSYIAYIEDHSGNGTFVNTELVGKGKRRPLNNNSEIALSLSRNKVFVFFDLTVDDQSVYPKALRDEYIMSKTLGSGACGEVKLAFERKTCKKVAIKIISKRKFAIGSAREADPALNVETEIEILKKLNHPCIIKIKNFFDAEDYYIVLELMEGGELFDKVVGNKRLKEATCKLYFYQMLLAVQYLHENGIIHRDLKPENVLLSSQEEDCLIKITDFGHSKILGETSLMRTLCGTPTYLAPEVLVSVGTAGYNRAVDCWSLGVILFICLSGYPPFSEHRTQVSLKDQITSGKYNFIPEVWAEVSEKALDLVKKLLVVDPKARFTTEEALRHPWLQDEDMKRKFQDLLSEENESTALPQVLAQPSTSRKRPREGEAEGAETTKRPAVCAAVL
Method: as §1

EPH-B1 = EPH-B1 (Homo sapiens, UniProt P54762)
Chain of EPH-B1 (P54762 18-984): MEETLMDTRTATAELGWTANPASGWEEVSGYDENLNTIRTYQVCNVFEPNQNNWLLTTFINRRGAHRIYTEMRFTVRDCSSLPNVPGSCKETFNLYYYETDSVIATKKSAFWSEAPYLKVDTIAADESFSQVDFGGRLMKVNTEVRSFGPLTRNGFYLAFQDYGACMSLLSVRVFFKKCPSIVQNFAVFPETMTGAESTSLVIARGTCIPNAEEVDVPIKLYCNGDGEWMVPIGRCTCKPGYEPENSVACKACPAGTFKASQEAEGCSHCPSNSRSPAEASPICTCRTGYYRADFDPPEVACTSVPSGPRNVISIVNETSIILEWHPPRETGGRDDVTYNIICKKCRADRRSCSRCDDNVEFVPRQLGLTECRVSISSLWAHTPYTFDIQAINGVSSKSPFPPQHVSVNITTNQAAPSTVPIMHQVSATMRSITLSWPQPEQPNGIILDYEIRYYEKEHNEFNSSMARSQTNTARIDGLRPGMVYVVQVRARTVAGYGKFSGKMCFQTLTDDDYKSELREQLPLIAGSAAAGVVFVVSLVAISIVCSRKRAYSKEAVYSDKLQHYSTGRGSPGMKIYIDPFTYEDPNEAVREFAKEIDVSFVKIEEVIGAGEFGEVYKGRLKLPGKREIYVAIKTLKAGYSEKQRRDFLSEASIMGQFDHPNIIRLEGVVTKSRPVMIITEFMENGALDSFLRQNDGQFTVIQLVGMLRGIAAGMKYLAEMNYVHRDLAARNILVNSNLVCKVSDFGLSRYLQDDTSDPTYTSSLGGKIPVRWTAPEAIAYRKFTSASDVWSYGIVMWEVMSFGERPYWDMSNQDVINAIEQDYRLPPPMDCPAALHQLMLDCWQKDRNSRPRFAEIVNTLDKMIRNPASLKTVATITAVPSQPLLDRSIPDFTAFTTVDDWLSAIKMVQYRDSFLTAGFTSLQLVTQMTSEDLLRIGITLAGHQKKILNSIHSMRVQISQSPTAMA
Method: as §1

PDK1 = PDK1 (Homo sapiens, UniProt O15530)
Method: as §1

RSK2 = RSK2 (Homo sapiens, UniProt P51812)
Method: as §1

NUAK1 = target: T1, NUAK1 (Homo sapiens, UniProt O60285)
T1 construct: made in house; host or cells: HEK-293 cells, transient transfection of pEBG2T construct
T1 sequence (O60285 1-661): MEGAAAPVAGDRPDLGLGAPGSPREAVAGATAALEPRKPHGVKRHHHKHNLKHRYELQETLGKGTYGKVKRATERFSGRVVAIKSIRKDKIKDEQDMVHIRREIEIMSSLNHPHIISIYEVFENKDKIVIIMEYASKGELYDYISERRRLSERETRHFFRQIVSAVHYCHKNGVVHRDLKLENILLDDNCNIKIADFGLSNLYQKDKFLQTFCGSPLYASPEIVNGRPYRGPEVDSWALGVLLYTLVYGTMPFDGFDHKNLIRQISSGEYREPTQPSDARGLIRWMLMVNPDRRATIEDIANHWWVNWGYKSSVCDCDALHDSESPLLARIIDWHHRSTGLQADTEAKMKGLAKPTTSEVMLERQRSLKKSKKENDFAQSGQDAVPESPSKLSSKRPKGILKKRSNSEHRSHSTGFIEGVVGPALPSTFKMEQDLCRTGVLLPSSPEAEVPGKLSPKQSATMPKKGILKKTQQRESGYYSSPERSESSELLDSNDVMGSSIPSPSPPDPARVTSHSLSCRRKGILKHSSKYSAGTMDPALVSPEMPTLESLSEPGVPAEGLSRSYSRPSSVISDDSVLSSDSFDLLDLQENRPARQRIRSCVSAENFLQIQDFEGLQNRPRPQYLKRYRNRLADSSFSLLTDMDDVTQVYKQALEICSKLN
Method: as §1

IGF-1R = IGF-1R (Homo sapiens, UniProt P08069)
Method: as §1

Row | Compound | MEKK1 activity, percentage of DMSO control (MEKK1) | TGFBR1 activity, percentage of DMSO control (TGFBR1) | MST4 activity, percentage of DMSO control (MST4) | EPH-B2 activity, percentage of DMSO control (EPH-B2) | PHK activity, percentage of DMSO control (PHK) | EIF2AK3 activity, percentage of DMSO control (EIF2AK3) | NEK2α activity, percentage of DMSO control (NEK2α) | TTBK1 activity, percentage of DMSO control (TTBK1) | VEG-FR activity, percentage of DMSO control (VEG-FR) | TLK1 activity, percentage of DMSO control (TLK1) | PKCγ activity, percentage of DMSO control (PKCγ) | ERK2 activity, percentage of DMSO control (ERK2) | MPSK1 activity, percentage of DMSO control (MPSK1) | CK1γ 2 activity, percentage of DMSO control (CK1γ 2) | PIM2 activity, percentage of DMSO control (PIM2) | ULK1 activity, percentage of DMSO control (ULK1) | MKK6 activity, percentage of DMSO control (MKK6) | CAMKKβ activity, percentage of DMSO control (CAMKKβ) | MAP4K5 activity, percentage of DMSO control (MAP4K5) | CSK activity, percentage of DMSO control (CSK) | other results
1 | Cc1nc(Nc2cnn(C3CCNCC3)c2)nc2c1N(C)C(=O)c1cc3ccccc3cc1N2C [HTH-01-015] | 110 percentage | 102 percentage | 119 percentage | 97 percentage | 104 percentage | 99 percentage | 103 percentage | 124 percentage | 97 percentage | 106 percentage | 107 percentage | 125 percentage | 103 percentage | 109 percentage | 106 percentage | 132 percentage | 87 percentage | 87 percentage | 106 percentage | 103 percentage | RIPK2 activity, percentage of DMSO control (RIPK2): 88 percentage; SIK3 activity, percentage of DMSO control (SIK3): 109 percentage; MKK2 activity, percentage of DMSO control (MKK2): 111 percentage; p38β MAPK activity, percentage of DMSO control (p38β MAPK): 112 percentage; MNK1 activity, percentage of DMSO control (MNK1): 102 percentage; PAK6 activity, percentage of DMSO control (PAK6): 95 percentage; SIK2 activity, percentage of DMSO control (SIK2): 112 percentage; CHK2 activity, percentage of DMSO control (CHK2): 105 percentage; EPH-B1 activity, percentage of DMSO control (EPH-B1): 97 percentage; PDK1 activity, percentage of DMSO control (PDK1): 102 percentage; RSK2 activity, percentage of DMSO control (RSK2): 106 percentage; NUAK1 activity, percentage of DMSO control (NUAK1): 11 percentage; IGF-1R activity, percentage of DMSO control (IGF-1R): 133 percentage
2 | CCC(=O)Nc1cccc(Oc2nc(Nc3ccc(N4CCN(C)CC4)cc3OC)ncc2Cl)c1 [WZ4003] | 91 percentage | 102 percentage | 101 percentage | 107 percentage | 54 percentage | 76 percentage | 110 percentage | 78 percentage | 74 percentage | 91 percentage | 103 percentage | 107 percentage | 107 percentage | 102 percentage | 101 percentage | 52 percentage | 101 percentage | 44 percentage | 108 percentage | 105 percentage | RIPK2 activity, percentage of DMSO control (RIPK2): 105 percentage; SIK3 activity, percentage of DMSO control (SIK3): 102 percentage; MKK2 activity, percentage of DMSO control (MKK2): 98 percentage; p38β MAPK activity, percentage of DMSO control (p38β MAPK): 104 percentage; MNK1 activity, percentage of DMSO control (MNK1): 104 percentage; PAK6 activity, percentage of DMSO control (PAK6): 104 percentage; SIK2 activity, percentage of DMSO control (SIK2): 70 percentage; CHK2 activity, percentage of DMSO control (CHK2): 40 percentage; EPH-B1 activity, percentage of DMSO control (EPH-B1): 98 percentage; PDK1 activity, percentage of DMSO control (PDK1): 104 percentage; RSK2 activity, percentage of DMSO control (RSK2): 76 percentage; NUAK1 activity, percentage of DMSO control (NUAK1): 6 percentage; IGF-1R activity, percentage of DMSO control (IGF-1R): 33 percentage
